As usually defined, the IC50 is the concentration at which inhibition is half-maximal.

Holding throughout (type): biochemical
In assay [1] the target is T1, DNA gyrase (GyrA S84L + wild-type GyrB) (Staphylococcus aureus, UniProt Q932M0).
T1 construct: GyrA(S84L) from strain Mu50; with GyrB
In words: in vitro DNA cleavage assay and DNA supercoiling assay with recombinant gyrase.

In assay [2] the target is T2, topoisomerase IV (wild-type ParC) (Staphylococcus aureus, UniProt Q2FYS4).
T2 construct: wild-type ParC from strain FDA209P; with ParE
In words: in vitro DNA cleavage assay with recombinant topoisomerase IV.

The target of assay [3] is T3, DNA gyrase (wild-type GyrA + GyrB) (Staphylococcus aureus, UniProt P20831).
T3 construct: wild-type GyrA from strain FDA209P; with GyrB
In words: in vitro DNA cleavage assay and DNA supercoiling assay with recombinant gyrase.

For the compound `COc1ccc2c(=O)cc(-c3ccc(O)c(OC)c3)oc2c1` [CID12261165], the IC50 in assay [1] is reported as 4 mg/L. Turning to `C[C@H]1COc2c(N3CCN(C)CC3)c(F)cc3c(=O)c(C(=O)O)cn1c23` [Levofloxacin], the IC50 in assay [2] was 1.38 µM. Also, the “in vitro DNA cleavage assay and DNA supercoiling assay with recombinant gyrase” value in assay [3] is “using levofloxacin as a compound of interest, failure of DNA supercoiling activity was decreased upon acquisition of S84L mutation”.

(Values after article PMC9889749, “CID12261165, a flavonoid compound as antibacterial agents against quinolone-resistant Staphylococcus aureus” (Scientific Reports, 2023).)
